Laboratory results from paper PMC4999848 (Toxins, 2016).
“And” between values parts separate entries of the source, which are not always exact repeats. Identical values can stand only once. “Also recorded” adds a separate entry of the source.

Assays:
pepsin = target: T1, pepsin (Sus scrofa, UniProt P00791); assay: Deacetylation of 3/15ADON by pepsin; type: in vitro ADME, porcine; settings: for Disappearance of 3/15ADON, specific activity: pepsin 1.6 mg/mL, HCl 10 mM pH 2.3, 37 °C, substrate 100 μM; for Contribution to total deacetylation activity: Pepsin: percentage of sum of specific activities (Figure 8)
T1 construct: purchased Sigma-Aldrich
Method: (§1) Stock solutions of DON, 3ADON and 15ADON at 2 mg/mL were prepared in absolute ethanol and stored at −20 °C. For deacetylation assay, 3- or 15ADON were incubated with cells, explants, bacteria or digestive enzymes after being diluted in PBS^++ at a final concentration of 100 μM. PBS^++ solution containing only ethanol (at 1.5% final concentration) or DON (at 100 μM) were used in parallel as negative and positive control, respectively. For cells and explants, deacetylation assay take place in 6-well plates, wells being filled with 2 mL of PBS^++ containing either ethanol, DON, 3- or 15ADON. For fecal bacteria and digestive enzyme assay, deacetylation assay was conducted in 2 mL Eppendorf tubes filled with 1.5 mL of PBS^++ containing either ethanol, DON, 3- or 15ADON. In vitro intestinal digestion by luminal enzymes was performed using porcine enzymes from Sigma-Aldrich and physiological conditions. Briefly, 3- or 15ADON were incubated with pepsin (at 1.6 mg/mL corresponding to 900 U/mL), trypsin (at 0.35 mg/mL corresponding to 6000 U/mL), pancreatic lipase (at 0.75 mg/mL corresponding to 18 U/mL) or pancreatin (at 1.23 mg/mL, lipase activity >10 U/mL, protease activity >100 U/mL, amylase activity >100 U/mL). Except for pepsin for which the digestion was conducted in HCl solution at 10 mM (pH 2.3), in vitro digestion was performed in PBS^++ (pH 7.4). Finally, deacetylation assay was also performed with commercial pooled S9 fractions from human liver, small intestine and kidneys as well as with pure recombinant human CES1 and CES2. S9 fractions and CES1/2 were used at 0.1 mg/mL and 5 μg/mL (corresponding to CES activity >20 U/mL), respectively. In all cases, aliquots of the reaction solution were collected immediately (i.e., “time zero” sample) or after the indicated time period at 37 °C and analyzed by HPLC. […] In all cases, the experiments were conducted in triplicate (n = 3).
Deacetylation was monitoring both in term of disappearance of 3- or 15ADON and formation of DON. Measurement of DON, 3ADON and 15ADON concentrations was performed by reversed-phase HPLC using Waters Alliance System equipped with a Waters 2690 XE separation module and a Waters 996 photodiode array detector (Waters, Saint Quentin Falavier, France). The separation was achieved by mean of a LiChroCart column (125 mm × 4 mm) packed with 5 μm RP-18 Purospher gel (Merck, Darmstadt, Germany) and equipped with a LiChroCart precolumn (4 mm × 4 mm) packed with the same material (Merck). The precolumn and column were placed in room temperature. […] Quantification was based on calibration with the corresponding standard using Millinium Software (Waters, Saint Quentin Falavier, France).

Caco-2 cells = assay: Deacetylation of 3/15ADON by Caco-2 cells; type: in vitro ADME, human; settings: for Disappearance of 3/15ADON, specific activity: Caco-2, 37 °C, substrate 100 μM; for % deacetylated: Caco-2, 6 h incubation, 100 μM
Method: (§2) A498, Caco-2, T84 and HepG2 cells were used as models of human renal, small intestinal, colonic and hepatic cells, respectively. Cells were routinely grown in culture media (Dulbecco’s Modified Eagle Medium (DMEM), DMEM:F12 mixture and Minimum Essential Media (MEM) for A498/Caco-2, T84 and HepG2 cells, respectively) supplemented with 10% fetal calf serum and 1% antibiotics (streptomycin–penicillin solution). Cells were grown in 25 cm^2 ventilated flask maintained at 37 °C in a 5% CO2 incubator. Cells were routinely passed using trypsin-EDTA solution. For deacetylation experiments, cells were seeded onto 6-well plates at an initial density of 200,000 cells/cm^2. HepG2 and A498 were used 3–4 days post-seeding when confluence was reached. Caco-2 and T84 cells were let to differentiate for 10–14 days post-seeding before being used. In all cases, cells were washed three times with sterile phosphate buffer saline PBS^++ (PBS containing 100 mg/L of calcium and magnesium salts) before deacetylation assay.
(§3) Stock solutions of DON, 3ADON and 15ADON at 2 mg/mL were prepared in absolute ethanol and stored at −20 °C. For deacetylation assay, 3- or 15ADON were incubated with cells, explants, bacteria or digestive enzymes after being diluted in PBS^++ at a final concentration of 100 μM. PBS^++ solution containing only ethanol (at 1.5% final concentration) or DON (at 100 μM) were used in parallel as negative and positive control, respectively. For cells and explants, deacetylation assay take place in 6-well plates, wells being filled with 2 mL of PBS^++ containing either ethanol, DON, 3- or 15ADON. For fecal bacteria and digestive enzyme assay, deacetylation assay was conducted in 2 mL Eppendorf tubes filled with 1.5 mL of PBS^++ containing either ethanol, DON, 3- or 15ADON. In vitro intestinal digestion by luminal enzymes was performed using porcine enzymes from Sigma-Aldrich and physiological conditions. Briefly, 3- or 15ADON were incubated with pepsin (at 1.6 mg/mL corresponding to 900 U/mL), trypsin (at 0.35 mg/mL corresponding to 6000 U/mL), pancreatic lipase (at 0.75 mg/mL corresponding to 18 U/mL) or pancreatin (at 1.23 mg/mL, lipase activity >10 U/mL, protease activity >100 U/mL, amylase activity >100 U/mL). Except for pepsin for which the digestion was conducted in HCl solution at 10 mM (pH 2.3), in vitro digestion was performed in PBS^++ (pH 7.4). Finally, deacetylation assay was also performed with commercial pooled S9 fractions from human liver, small intestine and kidneys as well as with pure recombinant human CES1 and CES2. […] In all cases, aliquots of the reaction solution were collected immediately (i.e., “time zero” sample) or after the indicated time period at 37 °C and analyzed by HPLC. […]

HepG2 cells = assay: Deacetylation of 3/15ADON by HepG2 cells; type: in vitro ADME, human; settings: for Disappearance of 3/15ADON, specific activity: HepG2, 37 °C, substrate 100 μM; for % deacetylated: HepG2, 6 h incubation, 100 μM
Method: as §2, §3

[1] = Deacetylation of 3/15ADON by small intestine S9 fraction; type: in vitro ADME, human
Method: as §1
Deacetylation was monitoring both in term of disappearance of 3- or 15ADON and formation of DON. Measurement of DON, 3ADON and 15ADON concentrations was performed by reversed-phase HPLC using Waters Alliance System equipped with a Waters 2690 XE separation module and a Waters 996 photodiode array detector (Waters, Saint Quentin Falavier, France). The separation was achieved by mean of a LiChroCart column (125 mm × 4 mm) packed with 5 μm RP-18 Purospher gel (Merck, Darmstadt, Germany) and equipped with a LiChroCart precolumn (4 mm × 4 mm) packed with the same material (Merck). The precolumn and column were placed in room temperature. The elution procedure was carried out at 0.7 mL·min^−1 by a methanol–water solvent, using the following conditions: 40% methanol during 2 min followed by an increase in methanol to 50% at 2.1 min. The detection wavelength was set at 237 nm allowing the best signal/baseline ratio for simultaneous detection of the three DON forms in the incubation mediums. Under these conditions, DON and 3/15ADON were clearly separated, the retention time being around 2.7 min and 5.7 min, for DON and 3/15ADON, respectively (Figure 9). Quantification was based on calibration with the corresponding standard using Millinium Software (Waters, Saint Quentin Falavier, France).

recombinant human CES1 = target: T2, recombinant human CES1 (Homo sapiens, UniProt P23141); assay: Deacetylation of 3/15ADON by recombinant CES1; type: in vitro ADME; design: purchased R&D Systems; settings: 5 μg/mL CES1, up to 24 h, data not shown
T2 sequence (P23141 18-567): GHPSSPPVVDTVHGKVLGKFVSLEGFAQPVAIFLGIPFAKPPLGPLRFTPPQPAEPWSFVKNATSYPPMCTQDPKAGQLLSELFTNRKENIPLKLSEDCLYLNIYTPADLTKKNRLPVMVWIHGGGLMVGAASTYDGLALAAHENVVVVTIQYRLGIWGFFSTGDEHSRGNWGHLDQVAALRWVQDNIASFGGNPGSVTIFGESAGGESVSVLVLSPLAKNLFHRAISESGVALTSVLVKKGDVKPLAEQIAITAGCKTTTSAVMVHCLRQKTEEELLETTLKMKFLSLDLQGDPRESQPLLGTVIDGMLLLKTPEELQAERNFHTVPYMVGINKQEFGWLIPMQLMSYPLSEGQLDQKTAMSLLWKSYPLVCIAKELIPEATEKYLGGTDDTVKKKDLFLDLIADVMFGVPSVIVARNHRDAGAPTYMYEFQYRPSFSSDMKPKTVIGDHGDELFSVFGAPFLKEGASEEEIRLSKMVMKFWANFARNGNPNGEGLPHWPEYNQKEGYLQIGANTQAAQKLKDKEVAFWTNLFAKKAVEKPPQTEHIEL
Method: Stock solutions of DON, 3ADON and 15ADON at 2 mg/mL were prepared in absolute ethanol and stored at −20 °C. For deacetylation assay, 3- or 15ADON were incubated with cells, explants, bacteria or digestive enzymes after being diluted in PBS^++ at a final concentration of 100 μM. PBS^++ solution containing only ethanol (at 1.5% final concentration) or DON (at 100 μM) were used in parallel as negative and positive control, respectively. For cells and explants, deacetylation assay take place in 6-well plates, wells being filled with 2 mL of PBS^++ containing either ethanol, DON, 3- or 15ADON. For fecal bacteria and digestive enzyme assay, deacetylation assay was conducted in 2 mL Eppendorf tubes filled with 1.5 mL of PBS^++ containing either ethanol, DON, 3- or 15ADON. In vitro intestinal digestion by luminal enzymes was performed using porcine enzymes from Sigma-Aldrich and physiological conditions. […] In all cases, aliquots of the reaction solution were collected immediately (i.e., “time zero” sample) or after the indicated time period at 37 °C and analyzed by HPLC. […]
Deacetylation was monitoring both in term of disappearance of 3- or 15ADON and formation of DON. […] Quantification was based on calibration with the corresponding standard using Millinium Software (Waters, Saint Quentin Falavier, France).

[2] = S9 Intestine + Benzil 100 μM (Table 1)
[3] = S9 small intestine 0.1 mg/mL, 37 °C, substrate 100 μM (Table 3)

T1 sequence (P00791 60-385): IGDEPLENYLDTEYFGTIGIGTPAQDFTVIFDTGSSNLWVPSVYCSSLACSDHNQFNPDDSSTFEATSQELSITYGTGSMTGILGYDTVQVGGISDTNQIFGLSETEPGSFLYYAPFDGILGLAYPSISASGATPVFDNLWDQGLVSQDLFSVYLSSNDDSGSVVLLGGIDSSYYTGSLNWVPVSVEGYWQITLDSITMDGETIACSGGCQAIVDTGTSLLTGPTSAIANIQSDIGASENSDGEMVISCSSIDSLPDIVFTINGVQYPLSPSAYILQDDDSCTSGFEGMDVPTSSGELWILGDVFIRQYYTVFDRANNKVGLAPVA

Structure (SMILES) | Disappearance of 3/15ADON, specific activity (pepsin) | Contribution to total deacetylation activity: Pepsin (pepsin) | Disappearance of 3/15ADON, specific activity (Caco-2 cells) | % deacetylated (Caco-2 cells) | Disappearance of 3/15ADON, specific activity (HepG2 cells) | % deacetylated (HepG2 cells) | Disappearance of 3/15ADON, specific activity [1, 2] | Disappearance of 3/15ADON, specific activity [1, 3] | Deacetylation activity of CES1 on 3/15ADON (recombinant human CES1) | Disappearance of 3/15ADON, specific activity ([1]; S9 Intestine, without benzil (Table 1))
CC(=O)OC[C@]12[C@H](O)C(=O)C(C)=C[C@H]1O[C@@H]1[C@H](O)C[C@@]2(C)[C@]12CO2 [15ADON, 15-acetyldeoxynivalenol] | 40 ± 4.5 pmol/min/mg | 7% | 152 pmol/min/mg and 152 ± 38 pmol/min/mg | 22.4% ± 5.5% | 295 pmol/min/mg and 295 ± 41 pmol/min/mg | 16.8% ± 2.4% | 171 ± 79 pmol/min/mg | 166 pmol/min/mg and 166 ± 20 pmol/min/mg | failed at observing any deacetylation activity; also recorded: unable to cause the deacetylation | –
CC(=O)O[C@@H]1C[C@]2(C)[C@@]3(CO)[C@H](O)C(=O)C(C)=C[C@H]3O[C@H]1[C@@]21CO1 [3ADON, 3-acetyldeoxynivalenol] | 34 ± 7.5 pmol/min/mg | 3% | 479 pmol/min/mg and 479 ± 97 pmol/min/mg | 69.1% ± 14.3% | 902 pmol/min/mg and 902 ± 78 pmol/min/mg | 52.1% ± 4.5% | 875 ± 83 pmol/min/mg | 1250 pmol/min/mg and 1250 ± 79 pmol/min/mg | failed at observing any deacetylation activity; also recorded: unable to cause the deacetylation | 1166 ± 110 pmol/min/mg
